Experiment [1] concerns HepG2. As to the kind of experiment: cells. To be noted: Homo sapiens, HepG2, 48 h.
Description: Cytotoxicity against human HepG2 cells after 48 hrs by MTT assay
Experiment [2] deals with Epidermal growth factor receptor (Homo sapiens, UniProt P00533). Description: Inhibition of human EGFR autophosphorylation expressed in Sf9 cells DELFIA assay. It counts as cell-based.

Each structure is given as a SMILES string. Converted amounts (≈) assume the structure as drawn.

Epidermal growth factor receptor, sequence (P00533 whole entry): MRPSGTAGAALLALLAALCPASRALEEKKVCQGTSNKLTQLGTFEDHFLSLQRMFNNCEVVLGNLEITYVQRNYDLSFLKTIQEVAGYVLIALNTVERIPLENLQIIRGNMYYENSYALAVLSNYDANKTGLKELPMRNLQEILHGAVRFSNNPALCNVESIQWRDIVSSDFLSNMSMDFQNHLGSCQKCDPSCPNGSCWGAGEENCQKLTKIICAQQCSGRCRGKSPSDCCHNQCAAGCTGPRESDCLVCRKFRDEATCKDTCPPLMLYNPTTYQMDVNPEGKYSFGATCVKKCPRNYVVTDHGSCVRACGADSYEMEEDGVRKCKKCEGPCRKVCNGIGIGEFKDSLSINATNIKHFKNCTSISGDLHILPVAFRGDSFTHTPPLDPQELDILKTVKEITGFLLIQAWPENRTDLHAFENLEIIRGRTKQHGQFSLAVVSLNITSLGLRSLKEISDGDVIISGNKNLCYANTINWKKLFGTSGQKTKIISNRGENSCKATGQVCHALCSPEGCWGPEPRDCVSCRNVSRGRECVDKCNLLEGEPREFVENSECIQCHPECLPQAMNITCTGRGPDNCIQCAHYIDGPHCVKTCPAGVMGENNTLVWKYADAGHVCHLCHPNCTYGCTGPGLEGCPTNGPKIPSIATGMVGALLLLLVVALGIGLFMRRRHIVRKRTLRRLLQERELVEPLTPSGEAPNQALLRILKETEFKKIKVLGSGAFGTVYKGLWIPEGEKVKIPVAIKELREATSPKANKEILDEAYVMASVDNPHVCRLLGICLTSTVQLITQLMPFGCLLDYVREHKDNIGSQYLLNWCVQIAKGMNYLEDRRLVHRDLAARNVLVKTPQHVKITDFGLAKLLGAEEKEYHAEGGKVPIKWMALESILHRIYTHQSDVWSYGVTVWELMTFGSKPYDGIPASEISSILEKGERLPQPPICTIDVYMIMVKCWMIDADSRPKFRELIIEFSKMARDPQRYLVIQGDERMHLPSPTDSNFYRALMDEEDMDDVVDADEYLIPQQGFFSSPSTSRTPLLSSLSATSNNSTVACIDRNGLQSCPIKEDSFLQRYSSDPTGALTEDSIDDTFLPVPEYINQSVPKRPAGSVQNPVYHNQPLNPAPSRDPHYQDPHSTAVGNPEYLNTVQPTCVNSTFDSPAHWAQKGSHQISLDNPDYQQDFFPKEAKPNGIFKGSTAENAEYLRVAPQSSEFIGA

In general, IC50 refers to the concentration that gives 50% inhibition. Read a low IC50 as higher potency. In the case of `CCOC(=O)c1c(C(=O)OCC)c2cc(C)ccn2c1C(=O)C1CC1`, in experiment [1], the IC50 is 0.29 µg/mL (≈ 0.845 µM).
Turning to `Cc1ccc(Br)c2c(C#N)cc(C(=O)C3CC3)n12`, the results for the IC50 in experiment [2] and in experiment [1] were 85 nM and 0.2 µg/mL (≈ 0.66 µM), respectively.
As to `O=C(c1c2c(c3ccccn13)C(=O)N(c1ccccc1)C2=O)C1CC1`, in experiment [1], the IC50 is 0.48 µg/mL (≈ 1.45 µM).
Same read-out and setting: the value for `Cc1ccn2c(C(=O)C3CC3)cc(C#N)c2c1` was 21 µg/mL (≈ 93.6 µM); that for `COC(=O)c1cc(C(=O)C2CC2)n2c(C)ccc(Br)c12` was 1.1 µg/mL (≈ 3.27 µM); that for `COC(=O)c1cc(C(=O)C2CC2)n2c(Br)cccc12` was 2.5 µg/mL (≈ 7.76 µM).
On the same count and under the same terms, to `N#Cc1cc(C(=O)C2CC2)n2c(Br)cccc12` belongs 1.8 µg/mL (≈ 6.23 µM).
Same read-out and setting: to `N#Cc1cc(C(=O)C2CC2)n2c1ccc1ccccc12` belongs 2.1 µg/mL (≈ 8.07 µM); to `COC(=O)c1cc(C(=O)C2CC2)n2c1ccc1nccn12`, 25 µg/mL (≈ 88.2 µM).
`COC(=O)c1cc(C(=O)C2CC2)n2ccccc12` returned a 50% inhibitory concentration (IC50) in experiment [1] of 6.6 µg/mL (≈ 27.1 µM).
In the case of `N#Cc1cc(C(=O)C2CC2)n2c1ccc1nccn12`, the IC50 in experiment [1] was 15 µg/mL (≈ 59.9 µM).
On the same count and under the same terms, to `O=C(Nc1ccccc1)c1cc(C(=O)C2CC2)n2ccccc12` belongs 0.56 µg/mL (≈ 1.84 µM).
Regarding `COC(=O)c1cc(C(=O)C2CC2)n2ccc(C)cc12`, half-maximal inhibition in experiment [1] (IC50) was put at 25 µg/mL (≈ 97.2 µM).
Still for that read-out and setting: to `COC(=O)c1cc(C(=O)C2CC2)n2c1ccc1ccccc12` belongs 4.6 µg/mL (≈ 15.7 µM); to `CCOC(=O)c1c(C(=O)OCC)c2ccccn2c1C(=O)C1CC1`, 32 µg/mL (≈ 97.2 µM).
Still for that read-out and setting: the value for `N#Cc1cc(C(=O)C2CC2)n2ccc3ccccc3c12` was 4.3 µg/mL (≈ 16.5 µM); that for `COC(=O)c1c(C(=O)OC)c2c3ccccc3ccn2c1C(=O)C1CC1` was 27 µg/mL (≈ 76.8 µM).
Still for that read-out and setting: to `COC(=O)c1cc(C(=O)C2CC2)n2ccc3ccccc3c12` belongs 9.3 µg/mL (≈ 31.7 µM); to `N#Cc1cc(C(=O)C2CC2)n2ccccc12`, 0.32 µg/mL (≈ 1.52 µM).

The record behind these values is ChEMBL document CHEMBL1177838, “Synthesis and antiproliferative activity of indolizine derivatives incorporating a cyclopropylcarbonyl group against Hep-G2 cancer cell line” (Eur J Med Chem, 2010).
